Measurements reported in BindingDB's records for doi:10.1016/s0960-894x(00)00535-7 (Kyoto University, 2000).
Where a SMILES comes first, the peptide text is derived from it. Bridges are numbered along the chain shown (N, C = ends). [ ]: non-standard residue; d: D form. 2Nal = N[C@@H](Cc1ccc2ccccc2c1)C(=O)O; Cit = NC(=O)NCCC[C@H](N)C(=O)O

Test: Inhibition of HIV-induced cytopathogenicity in MT-4 cell

Compound	EC50 [nM]
NCCCC[C@@H]1NC(=O)[C@H](CCCN=C(N)N)NC(=O)[C@H](Cc2ccc(O)cc2)NC(=O)[C@@H](NC(=O)[C@H](Cc2c[nH]c3ccccc23)NC(=O)[C@H](CCCN=C(N)N)NC(=O)[C@@H](N)CCCN=C(N)N)CSSC[C@@H](C(=O)N[C@@H](CCCN=C(N)N)C(=O)O)NC(=O)[C@H](CCCNC(N)=O)NC(=O)[C@H](CCCN=C(N)N)NC(=O)[C@H](Cc2ccc(O)cc2)NC(=O)[C@@H]2CCCN2C(=O)[C@@H](CCCCN)NC1=O	8.3
C[C@@H]1NC(=O)[C@@H](CCCCN)NC(=O)[C@H](CCCCN)NC(=O)[C@H](CCCN=C(N)N)NC(=O)[C@H](Cc2ccc(O)cc2)NC(=O)[C@@H](NC(=O)[C@H](Cc2ccc3ccccc3c2)NC(=O)[C@H](CCCN=C(N)N)NC(=O)[C@@H](N)CCCN=C(N)N)CSSC[C@@H](C(=O)N[C@@H](CCCN=C(N)N)C(=O)O)NC(=O)[C@H](CCCNC(N)=O)NC(=O)[C@H](CCCN=C(N)N)NC(=O)[C@H](Cc2ccc(O)cc2)NC1=O (H-RR[2Nal]CYRK[dK]AYR[Cit]CR-OH; disulfide 4-13)	17
C[C@@H]1NC(=O)[C@H](CCCN=C(N)N)NC(=O)[C@H](Cc2ccc(O)cc2)NC(=O)[C@@H]2CCCN2C(=O)[C@@H](CCCCN)NC(=O)[C@H](CCCCN)NC(=O)[C@H](CCCN=C(N)N)NC(=O)[C@H](Cc2ccc(O)cc2)NC(=O)[C@@H](NC(=O)[C@H](Cc2ccc3ccccc3c2)NC(=O)[C@H](CCCN=C(N)N)NC(=O)[C@@H](N)CCCN=C(N)N)CSSC[C@@H](C(=O)N[C@@H](CCCN=C(N)N)C(=O)O)NC1=O	16
C[C@@H]1NC(=O)[C@H](CCCN=C(N)N)NC(=O)[C@H](Cc2ccc(O)cc2)NC(=O)[C@@H](NC(=O)[C@H](Cc2ccc3ccccc3c2)NC(=O)[C@H](CCCN=C(N)N)NC(=O)[C@@H](N)CCCN=C(N)N)CSSC[C@@H](C(=O)N[C@@H](CCCN=C(N)N)C(=O)O)NC(=O)[C@H](CCCNC(N)=O)NC(=O)[C@H](CCCN=C(N)N)NC(=O)[C@H](Cc2ccc(O)cc2)NC(=O)[C@@H]2CCCN2C(=O)[C@@H](CCCCN)NC1=O	47
C[C@H](NC(=O)[C@H](CCCN=C(N)N)NC(=O)[C@@H](N)CCCN=C(N)N)C(=O)N[C@H]1CSSC[C@@H](C(=O)N[C@@H](CCCN=C(N)N)C(=O)O)NC(=O)[C@H](CCCNC(N)=O)NC(=O)[C@H](CCCN=C(N)N)NC(=O)[C@H](Cc2ccc(O)cc2)NC(=O)[C@@H]2CCCN2C(=O)[C@@H](CCCCN)NC(=O)[C@H](CCCCN)NC(=O)[C@H](CCCN=C(N)N)NC(=O)[C@H](Cc2ccc(O)cc2)NC1=O	2500
C[C@@H]1NC(=O)[C@@H]2CCCN2C(=O)[C@@H](CCCCN)NC(=O)[C@H](CCCCN)NC(=O)[C@H](CCCN=C(N)N)NC(=O)[C@H](Cc2ccc(O)cc2)NC(=O)[C@@H](NC(=O)[C@H](Cc2ccc3ccccc3c2)NC(=O)[C@H](CCCN=C(N)N)NC(=O)[C@@H](N)CCCN=C(N)N)CSSC[C@@H](C(=O)N[C@@H](CCCN=C(N)N)C(=O)O)NC(=O)[C@H](CCCNC(N)=O)NC(=O)[C@H](CCCN=C(N)N)NC1=O	17
NCCCC[C@@H]1NC(=O)[C@H](CCCN=C(N)N)NC(=O)[C@H](Cc2ccc(O)cc2)NC(=O)[C@@H](NC(=O)[C@H](Cc2ccc3ccccc3c2)NC(=O)[C@H](CCCN=C(N)N)NC(=O)[C@@H](N)CCCN=C(N)N)CSSC[C@@H](C(=O)N[C@@H](CCCN=C(N)N)C(=O)O)NC(=O)[C@H](CCCNC(N)=O)NC(=O)[C@H](CCCN=C(N)N)NC(=O)[C@H](Cc2ccc(O)cc2)NC(=O)[C@@H]2CCCN2C(=O)[C@@H](CCCCN)NC1=O (H-RR[2Nal]CYRK[dK]PYR[Cit]CR-OH; disulfide 4-13)	3.3
NCCCC[C@@H]1NC(=O)[C@H](CCCN=C(N)N)NC(=O)[C@H](Cc2ccc(O)cc2)NC(=O)[C@@H](NC(=O)[C@H](Cc2ccc3ccccc3c2)NC(=O)[C@H](CCCNC(N)=O)NC(=O)[C@@H](N)CCCN=C(N)N)CSSC[C@@H](C(=O)N[C@@H](CCCN=C(N)N)C(=O)O)NC(=O)[C@H](CCCNC(N)=O)NC(=O)[C@H](CCCN=C(N)N)NC(=O)[C@H](Cc2ccc(O)cc2)NC(=O)[C@@H]2CCCN2C(=O)[C@@H](CCCCN)NC1=O	450
NCCCC[C@@H]1NC(=O)[C@H](CCCN=C(N)N)NC(=O)[C@H](Cc2ccc(O)cc2)NC(=O)[C@@H](NC(=O)[C@H](Cc2ccc3ccccc3c2)NC(=O)[C@H](CCCN=C(N)N)NC(=O)[C@@H](N)CCCNC(N)=O)CSSC[C@@H](C(=O)N[C@@H](CCCN=C(N)N)C(=O)O)NC(=O)[C@H](CCCNC(N)=O)NC(=O)[C@H](CCCN=C(N)N)NC(=O)[C@H](Cc2ccc(O)cc2)NC(=O)[C@@H]2CCCN2C(=O)[C@@H](CCCCN)NC1=O	15
CC(N)C(=O)N[C@@H](CCCN=C(N)N)C(=O)N[C@@H](Cc1ccc2ccccc2c1)C(=O)N[C@H]1CSSC[C@@H](C(=O)N[C@@H](CCCN=C(N)N)C(=O)O)NC(=O)[C@H](CCCNC(N)=O)NC(=O)[C@H](CCCN=C(N)N)NC(=O)[C@H](Cc2ccc(O)cc2)NC(=O)[C@@H]2CCCN2C(=O)[C@@H](CCCCN)NC(=O)[C@H](CCCCN)NC(=O)[C@H](CCCN=C(N)N)NC(=O)[C@H](Cc2ccc(O)cc2)NC1=O (stereo partly specified)	56
NCCCC[C@H]1NC(=O)[C@H](CCCNC(N)=O)NC(=O)[C@H](CCCN=C(N)N)NC(=O)[C@H](Cc2ccc(O)cc2)NC(=O)[C@@H](NC(=O)[C@H](Cc2ccc3ccccc3c2)NC(=O)[C@H](CCCN=C(N)N)NC(=O)[C@@H](N)CCCN=C(N)N)CSSC[C@@H](C(=O)N[C@@H](CCCN=C(N)N)C(=O)O)NC(=O)[C@H](CCCNC(N)=O)NC(=O)[C@H](CCCN=C(N)N)NC(=O)[C@H](Cc2ccc(O)cc2)NC(=O)[C@@H]2CCCN2C1=O	16
C[C@H](NC(=O)[C@@H]1CSSC[C@H](NC(=O)[C@H](Cc2ccc3ccccc3c2)NC(=O)[C@H](CCCN=C(N)N)NC(=O)[C@@H](N)CCCN=C(N)N)C(=O)N[C@@H](Cc2ccc(O)cc2)C(=O)N[C@@H](CCCN=C(N)N)C(=O)N[C@@H](CCCCN)C(=O)N[C@H](CCCCN)C(=O)N2CCC[C@H]2C(=O)N[C@@H](Cc2ccc(O)cc2)C(=O)N[C@@H](CCCN=C(N)N)C(=O)N[C@@H](CCCNC(N)=O)C(=O)N1)C(=O)O	400
C[C@H]1NC(=O)[C@H](CCCCN)NC(=O)[C@H](CCCN=C(N)N)NC(=O)[C@H](Cc2ccc(O)cc2)NC(=O)[C@@H](NC(=O)[C@H](Cc2ccc3ccccc3c2)NC(=O)[C@H](CCCN=C(N)N)NC(=O)[C@@H](N)CCCN=C(N)N)CSSC[C@@H](C(=O)N[C@@H](CCCN=C(N)N)C(=O)O)NC(=O)[C@H](CCCNC(N)=O)NC(=O)[C@H](CCCN=C(N)N)NC(=O)[C@H](Cc2ccc(O)cc2)NC(=O)[C@@H]2CCCN2C1=O	16
NCCCC[C@@H]1NC(=O)[C@H](CCCNC(N)=O)NC(=O)[C@H](Cc2ccc(O)cc2)NC(=O)[C@@H](NC(=O)[C@H](Cc2ccc3ccccc3c2)NC(=O)[C@H](CCCN=C(N)N)NC(=O)[C@@H](N)CCCN=C(N)N)CSSC[C@@H](C(=O)N[C@@H](CCCN=C(N)N)C(=O)O)NC(=O)[C@H](CCCNC(N)=O)NC(=O)[C@H](CCCN=C(N)N)NC(=O)[C@H](Cc2ccc(O)cc2)NC(=O)[C@@H]2CCCN2C(=O)[C@@H](CCCCN)NC1=O	2.8

The next lines start with the values.

EC50 [nM]	Compound
18	C[C@@H]1NC(=O)[C@H](Cc2ccc(O)cc2)NC(=O)[C@@H]2CCCN2C(=O)[C@@H](CCCCN)NC(=O)[C@H](CCCCN)NC(=O)[C@H](CCCN=C(N)N)NC(=O)[C@H](Cc2ccc(O)cc2)NC(=O)[C@@H](NC(=O)[C@H](Cc2ccc3ccccc3c2)NC(=O)[C@H](CCCN=C(N)N)NC(=O)[C@@H](N)CCCN=C(N)N)CSSC[C@@H](C(=O)N[C@@H](CCCN=C(N)N)C(=O)O)NC(=O)[C@H](CCCNC(N)=O)NC1=O [TC-14007]
880	NCCCC[C@@H]1NC(=O)[C@H](CCCN=C(N)N)NC(=O)[C@H](Cc2ccc(O)cc2)NC(=O)[C@@H](NC(=O)[C@H](Cc2ccc3ccccc3c2)NC(=O)[C@H](CCCN=C(N)N)NC(=O)[C@@H](N)CCCN=C(N)N)CSSC[C@@H](C(=O)N[C@@H](CCCNC(N)=O)C(=O)O)NC(=O)[C@H](CCCNC(N)=O)NC(=O)[C@H](CCCN=C(N)N)NC(=O)[C@H](Cc2ccc(O)cc2)NC(=O)[C@@H]2CCCN2C(=O)[C@@H](CCCCN)NC1=O [TC-14006]
1300	C[C@H](NC(=O)[C@@H](N)CCCN=C(N)N)C(=O)N[C@@H](Cc1ccc2ccccc2c1)C(=O)N[C@H]1CSSC[C@@H](C(=O)N[C@@H](CCCN=C(N)N)C(=O)O)NC(=O)[C@H](CCCNC(N)=O)NC(=O)[C@H](CCCN=C(N)N)NC(=O)[C@H](Cc2ccc(O)cc2)NC(=O)[C@@H]2CCCN2C(=O)[C@@H](CCCCN)NC(=O)[C@H](CCCCN)NC(=O)[C@H](CCCN=C(N)N)NC(=O)[C@H](Cc2ccc(O)cc2)NC1=O [TC-14001]
9.3	C[C@@H]1NC(=O)[C@H](Cc2ccc(O)cc2)NC(=O)[C@@H](NC(=O)[C@H](Cc2ccc3ccccc3c2)NC(=O)[C@H](CCCN=C(N)N)NC(=O)[C@@H](N)CCCN=C(N)N)CSSC[C@@H](C(=O)N[C@@H](CCCN=C(N)N)C(=O)O)NC(=O)[C@H](CCCNC(N)=O)NC(=O)[C@H](CCCN=C(N)N)NC(=O)[C@H](Cc2ccc(O)cc2)NC(=O)[C@@H]2CCCN2C(=O)[C@@H](CCCCN)NC(=O)[C@H](CCCCN)NC1=O [TC-14002]
15	NCCCC[C@@H]1NC(=O)[C@H](CCCN=C(N)N)NC(=O)[C@H](Cc2ccc(O)cc2)NC(=O)[C@@H](NC(=O)[C@H](Cc2ccc3ccccc3c2)NC(=O)[C@H](CCCN=C(N)N)NC(=O)[C@@H](N)CCCN=C(N)N)CSSC[C@@H](C(=O)N[C@@H](CCCN=C(N)N)C(=O)O)NC(=O)[C@H](CCCNC(N)=O)NC(=O)[C@H](CCCNC(N)=O)NC(=O)[C@H](Cc2ccc(O)cc2)NC(=O)[C@@H]2CCCN2C(=O)[C@@H](CCCCN)NC1=O [TC-14003]
4	NCCCC[C@@H]1NC(=O)[C@H](CCCN=C(N)N)NC(=O)[C@H](Cc2ccc(O)cc2)NC(=O)[C@@H](NC(=O)[C@H](Cc2ccc3ccccc3c2)NC(=O)[C@H](CCCN=C(N)N)NC(=O)[C@@H](N)CCCN=C(N)N)CSSC[C@@H](C(=O)N[C@@H](CCCN=C(N)N)C(=O)O)NC(=O)[C@H](CCCNC(N)=O)NC(=O)[C@H](CCCN=C(N)N)NC(=O)[C@H](Cc2ccc(O)cc2)NC(=O)[C@@H]2CCCN2C(=O)[C@@H](CCCNC(N)=O)NC1=O [TC-14004]
360	C[C@@H]1NC(=O)[C@@H](NC(=O)[C@H](Cc2ccc3ccccc3c2)NC(=O)[C@H](CCCN=C(N)N)NC(=O)[C@@H](N)CCCN=C(N)N)CSSC[C@@H](C(=O)N[C@@H](CCCN=C(N)N)C(=O)O)NC(=O)[C@H](CCCNC(N)=O)NC(=O)[C@H](CCCN=C(N)N)NC(=O)[C@H](Cc2ccc(O)cc2)NC(=O)[C@@H]2CCCN2C(=O)[C@@H](CCCCN)NC(=O)[C@H](CCCCN)NC(=O)[C@H](CCCN=C(N)N)NC1=O [TC-14005]
